# Test results taken from PMC4226669, “Anti-cancer potency of tasquinimod is enhanced via albumin-binding facilitating increased uptake in the tumor microenvironment” (Oncotarget, 2014).
# “Also recorded” adds a separate entry of the source. Where two headings read alike, the source gives them in different places.
# What was measured:
# [1] = Tissue distribution and metabolites in nude mice bearing CWR-22Rv1 cancers; type: in vivo, mouse; settings: 4 hours post oral 5mg/kg tasquinimod; for concentration at 4 h: male, nude, mouse
# Protocol: To determine the concentration of metabolites, nude mice bearing CWR-22Rv1 prostate cancers were orally administered with 5 mg/kg of ^14C- radiolabeled tasquinimod and 4 and 24 hours later, blood plasma and liver, kidney, and cancer tissue harvested and analyzed for determination of metabolites. […] The predominant metabolite is the O-demethylated quinoline compound, Figure 2A&B, but the concentration of the hydroxylated aromatic quinoline and the N-demethylated quinoline compounds, along with the O-demethylated quinoline compound are also higher in the liver than the blood at the time point studied, Figure 2B. Also in the kidney 40% of the drug is present as metabolites, with the concentration of the hydroxylated aromatic quinoline and the O-demethylated quinoline compounds being higher than in the blood, Figure 2B. In contrast, within the cancer > 80% of the total concentration of drug is present as parent tasquinimod, Figure 2B. Only the O-demethylated quinoline compound is present at a higher concentration in the cancer than blood, Figure 2B. The plasma concentration of total metabolites is < 10% at 4 hours, Figure 2B, and 24 hours post oral dosing with 5 mg/kg, Figure 2A.
# Male nude mice bearing 200-300mm^3 CWR-22Rv1 cancers were given ^14C-labeled tasquinimod at a dose of 5 mg/kg via oral gavage. At times ranging from 30 min to 24 hour, groups of 4-6 mice were anaesthetized with ketamine and 1 ml of heparinized blood collected by cardiac puncture, followed by subsequent cardiac perfusion of saline to remove blood associated drug. An aliquot of liver, kidney, and cancer was removed, weighed and then homogenized. The radioactivity in 10 μL aliquots of tissue homogenates and blood plasma was determined using a liquid scintillation counter and used to calculate the total amount of tasquinimod plus its metabolites per gram of tissue or per ml of blood. The remaining sample volume was deproteinated with acetonitrile and the radioactivity of an aliquot of the supernatant determined and the remaining supernatant lyophilized, resuspended initially with 0.1mL dimethyl sulfoxide and diluted by the addition of 0.9mL deionized water prior to injection into the HPLC. The HPLC system consisted of Waters pumps using a Waters gradient controller to deliver mobile phase at a flow rate of 1mL per minute using a Supelcosil ABZ+ C18 column that is 150mm long by 4.6mm diameter and has 5μm particle size. The metabolites were separated using a linear gradient in which the starting mobile phase was 35% acetonitrile: 65% water: 0.1% Trifluoroacetic acid (TFA) increasing to 50% acetonitrile: 50% water: 0.1%TFA over 25 minutes, and then increased rapidly to 98% acetonitrile: 2% water: 0.1%TFA and held until 33 minutes before it is returned to the initial conditions for the next run. Fractions were collected and the radioactivity determined by scintillation counting. As controls, the individual elution time of non-radiolabeled standard solutions of the various tasquinimod metabolites was determined using UV absorption at 215nm. The results were expressed as concentration based upon tissue volume, assuming 1gram wet weight equals 1ml, or normalized to tissue vascular volume.
# Water solubility = type: physicochemical
# [2] = system: human umbilical vein endothelial cells (HUVECs); assay: 3D in vitro endothelial sprouting and tube formation assay; type: cell-based; settings: for IC50: Homo sapiens, HUVEC, 3D-HUVEC sprouting assay, read-out: IC50 (concentration of drug which inhibits by 50% the endothelial sprouting)
# Excerpt: A three-dimensional (3D) in vitro endothelial sprouting and tube formation assay was utilized to define the anti-angiogenic potency of tasquinimod vs. these metabolites. In this 3D assay, human umbilical endothelial cells (i.e., HUVECs) are initially grown on microcarrier beads and the cell coated beads embedded in fibrin gels with media conditioned by normal human lung fibroblasts. Under these 3D-conditions, endothelial cells “sprout” producing 3D neovessel tubes with patent lumen within one week, Figure 4A - left panel. When tasquinimod is added at the initiation to these 3D-cultures, sprouting of the endothelial cells is inhibited, Figure 4B-right panel, with the potency for such inhibition, expressed as an IC50 value (i.e., the concentration of drug which inhibits by 50% the endothelial sprouting) of 0.5 μM, Figure 4C. […] Using this 3D-HUVEC assay, the potency (i.e., expressed as IC50) of tasquinimod metabolites to inhibit endothelial sprouting was compared to tasquinimod. […] To further confirm that tasquinimod itself and not the carboxamide-N-demethylated metabolite is the active drug, the response to ketoconazole alone and in combination with tasquinimod was tested in the 3D-endothelial sprouting assay.
# The 3-dimensional (3D) in vitro angiogenic sprouting and tube formation assay was used as described previously. This 3D-endothelial sprouting assay was conducted using a minimum of 5 replicate wells per drug dose per experiment, repeated 3 independent times using human umbilical vein endothelial cells (HUVECs; Lonza Walkersville, Inc.) with modification that 20 μL of 10X concentrated Dulbecco's Modified Eagle's Media/10%FCS media conditioned by confluent human primary lung fibroblasts (Lonza) diluted to 200 μL of growth factor supplemented EGM-2 media (Lonza) was used instead of fibroblast co-culture.
# HUVEC cells = assay: In vitro cell metabolism in HUVEC; type: in vitro ADME, human; settings: HUVEC exposed to 1 μM 14C-labeled tasquinimod, 48 hours
# Protocol: The nuclear uptake results are consistent with tasquinimod being the active drug for both direct therapeutic effects on cancer cells and indirect effects via suppression of the angiogenic response of host endothelial cells. To confirm these conclusions, the concentration of tasquinimod metabolites produced by endothelial cells was compared to the potency of these metabolites for inhibiting angiogenesis. When HUVEC cells are exposed to 1 μM of ^14C-labeled tasquinimod for 48 hours, < 15% of the drug is metabolized with 10% (i.e., 100 nM) being converted to the quinoline-O-demethylated compound and < 2% (i.e., < 20 nM) being converted to the quinoline-N-demethylated or carboxamide-N-demethylated compounds.
# For in vitro studies, cells were incubated with 1μM ^14C-labeled tasquinimod for indicated time period and then the media and cells or cell nuclei separately harvested, deproteinated with acetonitrile, and metabolites separated by HPLC and quantitated as described above.
# [3] = system: CWR-22Rv1 human prostate cancer xenografts; assay: Dose-response growth inhibition of established CWR-22Rv1 xenografts (subcutaneous daily injection); type: in vivo, mouse; settings: 20 days
# Protocol: To confirm these in vitro results, mice were inoculated subcutaneously (SQ) with CWR-22Rv1 cells and remained untreated until the tumors grew to ~ 200 mm3 (i.e., ~ 200 mgs) and then they were randomly assigned to groups (n=10) which were injected SQ daily with 100 μl of propylene glycol vehicle only vs. vehicle delivering 0.1 or 1 mg/kg/day of either tasquinimod or its carboxamide-N-demethylated metabolite. Propylene glycol was used as vehicle due to the low water solubility of the carboxamide-N-demethylated metabolite. After 20 days of continuous treatment, the experiment was terminated and the total weight of each cancer determined and the results expressed both as average tumor weight in grams and as the ratio of the weight of the cancers in the treated vs. vehicle control animals (i.e., T/C ratio), Figure 5A.
# (§1) The source, history, and characteristics of the human prostate cancer cell lines (i.e., LNCaP, LAPC4, and CWR-22Rv1 and the human umbilical vascular endothelial cells (HUVEC) used, as well as cell culture conditions for their in vitro maintenance and the in vivo protocol for their xenografting into immune-deficient nude male mice are as described previously. The source, history, and characteristics of the TRAMP-C2 mouse prostate cancer line, as well as cell culture conditions for their in vitro maintenance and the in vivo protocol for their growth in intact adult male syngeneic C57Bl/6J are as described previously. All lines were mycoplasma negative using the MycoSensor PCR Assay kit (Agilent Technologies) and genetically authenticated within the last 6 months using short tandem repeat profiling conducted by the Johns Hopkins Genetic Resource Core Facility. The source, history, and characteristics of the CWR-RH human prostate cancer xenograft are as described previously. In vitro growth curves were determined as described. Animal studies were conducted according to animal protocol MO09M434 approved by Johns Hopkins Animal Care and Use Committee. Daily drug dosing via oral gavage, the drinking water, or subcutaneous injection, as well as tumor volume measurements and determination of the blood vessel density within cancers, were as described previously. These experiments were repeated at 3 independent times for each xenograft.
# CYP-3A [4] = system: CYP-3A; parameters: method as in PMID 15764719; settings: read-out: IC50 for inhibition of CYP-3A; cited from earlier work
# [5] = system: CWR-22RH human prostate cancer; assay: Tumor take of CWR-22RH xenografts in castrated nude mice; type: in vivo, mouse
# Protocol: To confirm this conclusion, castrated male nude mice were xenografted with the castrate resistant CWR-22RH human prostate cancer tissue and the animals immediately randomized into groups (n=10) which were: 1) left untreated as controls; 2) given daily oral treatment with tasquinimod alone via the drinking water (10mg/kg/day); 3) given oral ketoconazole alone via oral gavage at a daily dose which inhibits cytochrome P450 3A4 (i.e., 25 mg/kg/day); or 4) given a combination of the two drugs. […] These combined in vitro/in vivo results document tasquinimod, not one of its metabolites, is the active drug.
# as §1
# CYP-3A [6] = system: CYP-3A; parameters: method as in PMID 21391977; settings: oral dose of 25mg/kg/day; cited from earlier work
# [7] = CWR-22Rv1 cancer tissue, CWR-22Rv1 cancer, 1gm tissue = 1ml, read-out: concentration in CWR-22Rv1 cancer
# [8] = kidney, 1gm tissue = 1ml, read-out: concentration in kidney
# [9] = liver, 1gm tissue = 1ml, read-out: concentration in liver
# [10] = plasma, read-out: concentration in plasma
SMILES,percentage of total drug in CWR-22Rv1 cancer ([1]; CWR-22Rv1 cancer),percentage of total drug in kidney ([1]; kidney),percentage of total drug in liver ([1]; liver),"concentration at 4 h [1, 7] [nM]","concentration at 4 h [1, 8] [nM]","concentration at 4 h [1, 9] [nM]","concentration at 4 h [1, 10] [nM]",percentage of total drug in plasma ([1]; plasma),IC50 [2] [µM],concentration of metabolite formed (HUVEC cells) [nM],fraction of tasquinimod converted to the metabolite (HUVEC cells) [%],also measured
COc1cccc2c1c(O)c(C(=O)Nc1ccc(C(F)(F)F)cc1)c(=O)n2C [Carboxamide-N-demethylate],< 1%,< 1%,< 1%,< 30,< 30,< 130,< 60,< 1%,0.25,< 20,< 2,water solubility (Water solubility): low; fold more potent than tasquinimod (lower IC50) in inhibiting endothelial sprouting ([2]; relative to tasquinimod): 2 fold; Avg Tumor Weight ([3]; 0.1 mg/kg/day SQ): 0.891 ± 0.263 g; T/C Ratio ([3]; 0.1 mg/kg/day SQ): 0.512; Avg Tumor Weight ([3]; 1 mg/kg/day SQ): 0.724 ± 0.223 g; T/C Ratio ([3]; 1 mg/kg/day SQ): 0.415
COc1cccc2[nH]c(=O)c(C(=O)N(C)c3ccc(C(F)(F)F)cc3)c(O)c12 [Quinoline-N-demethylate],< 1%,< 1%,2+/-1%,< 30,< 30,260,< 60,< 1%,20,< 20,< 2,–
CN(C(=O)c1c(O)c2c(O)cccc2n(C)c1=O)c1ccc(C(F)(F)F)cc1 [Quinoline-O-demethylate],17+/- 4%,36+/-4%,62+/-7%,460,1400,8100,300,5+/-1%,30,100,10,–
CC(=O)N1CCN(c2ccc(OCC3COC(Cn4ccnc4)(c4ccc(Cl)cc4Cl)O3)cc2)CC1 (stereo not drawn) [ketoconazole],–,–,–,–,–,–,–,–,–,–,–,"effect of ketoconazole on tasquinimod's inhibition of 3D HUVEC sprouting ([2]; 10 μM ketoconazole simultaneously present with 1 μM tasquinimod): does not affect; also recorded: does not prevent inhibition; also recorded: does not suppress; inhibition of endothelial sprouting ([2]; ketoconazole alone, 10 μM): did not inhibit; IC50 (CYP-3A [4]): […]; effect of ketoconazole on anti-cancer efficacy of tasquinimod ([5]; ketoconazole 25 mg/kg/day combined with tasquinimod 10mg/kg/day): does not affect; also recorded: does not inhibit the therapeutic efficacy of tasquinimod; also recorded: does not suppress; tumor take and growth ([5]; ketoconazole alone 25 mg/kg/day via oral gavage from inoculation): does not inhibit either the take or growth; inhibition of CYP-3A (CYP-3A [6]): > 90%"
